From US20050080247A1, “Leinamycin biosynthesis gene cluster and its components and their uses” (priority 2001, published 2005)
Where two headings read alike, the source gives them in different places.

What was measured:
[1] = tested on: DNA; conditions: in the presence of thiol agents as cofactors; cited from earlier work
[2] = tested on: murine tumor models (HeLa S3, sarcoma180, B-16, Colon 26, leukemia P388); conditions: cited from earlier work
[3] = cited from earlier work; for t1/2: aqueous condition
[4] = tested on: fungi; conditions: cited from earlier work
[5] = tested on: Gram-positive and Gram-negative bacteria; conditions: cited from earlier work
[6] = tested on: S. atroolivaceus; test: Antibiotic sensitivity (growth inhibition) of S. atroolivaceus; type: cell-based, Streptomyces atroolivaceus; conditions: for complete inhibition of growth: concentration giving complete inhibition of growth of S. atroolivaceus; for sensitivity of S. atroolivaceus: result in words
Description: S. atroolivaceus grows very well at 30° C.; it doesn't grow at temperature beyond 35° C. […] Thus, E. coli-Streptornyces shuttle vectors pOJ260 (suicide vector, Am^R) and pKC1139 (self-replicating vector, Am^R) were chosen to make the gene-disruption constructs pYC12 and pYC20, respectively. The concentration of antibiotic (Am) for selection of transformants/exconjugates is 50 μg/ml.

Row | Compound | DNA cleavage [1] | activity against drug-resistant tumors ([2]; murine models inoculated with tumors resistant to cisplatin, doxorubicin, mitomycin or cyclophosphamide) | antitumor activity ([2]; murine tumor models in vivo, including HeLa S3, sarcoma180, B-16, Colon 26, leukemia P388) | t1/2 ([3]; pH 6) [h] | t1/2 ([3]; pH 7) [h] | t1/2 ([3]; pH 8) [h] | t1/2 in the presence of a thiol ([3]; in the presence of a thiol, compared with aqueous condition alone) | antimicrobial activity [4] | antimicrobial activity [5] | complete inhibition of growth [6] [µg/mL] | sensitivity of S. atroolivaceus [6]
1 | C/C1=C\[C@@H](O)C(=O)/C=C/C=C\c2csc(n2)[C@@H](C)NC(=O)C[C@@]2(CC1)[S+]([O-])SC(=O)[C@]2(C)O (stereo partly shown) [Lnm, Leinamycin] | single-strand scission of DNA | active | potent antitumor activity | > 20 | 8 | < 1 | even shorter t1/2 | not against fungi | broad spectrum of antimicrobial activity |  | 
2 | CN[C@@H]1[C@@H](O[C@H]2O[C@H](CO)[C@@H](N)[C@H](O)[C@H]2O)OC2C[C@@H](N)[C@@H](O[C@H]3[C@H](O)[C@@H](O)[C@H](N)C[C@@H]3N)OC2[C@@H]1O (stereo partly shown) [apramycin] |  |  |  |  |  |  |  |  |  | 10 | sensitive
3 | C=C(NC(=O)C(=C)NC(=O)c1csc(C2=N[C@@H]3c4csc(n4)[C@H]4NC(=O)c5csc(n5)[C@H]([C@](C)(O)[C@@H](C)O)NC(=O)[C@H]5CSC(=N5)/C(=C/C)NC(=O)[C@H]([C@@H](C)O)NC(=O)c5csc(n5)[C@]3(CC2)NC(=O)[C@H](C)NC(=O)C(=C)NC(=O)[C@H](C)NC(=O)[C@H]([C@@H](C)CC)N[C@@H]2C=Cc3c([C@H](C)O)cc(nc3[C@H]2O)C(=O)O[C@@H]4C)n1)C(N)=O [thiostrepton] |  |  |  |  |  |  |  |  |  | 3 | sensitive
